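Where inhibition never reached the appropriate level, the endpoint shown equals the highest concentration tested. Otherwise, values were interpolated linearly from a five-concentration, 48-hour dose response in 96-well plates. At the GI50, growth is halved.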 Active and inactive are the calls of the source. Cut-off read from the data, not from the text of the source: active = GI50 up to about 1.1 µM and inactive = higher.
Assays:
Test in all cases: growth of human tumour cells (NCI), 48 h
[1] = tested on: HL-60
[2] = tested on: U-251
[3] = tested on: EKVX
[4] = tested on: LOX IMVI
[5] = tested on: SNB-75
[6] = tested on: TK-10
[7] = tested on: HT-29
[8] = tested on: UACC-257
[9] = tested on: SF-268
[10] = tested on: MOLT-4
[11] = tested on: NCI-H460
[12] = tested on: SNB-19
[13] = tested on: OVCAR-5
[14] = tested on: BT-549
[15] = tested on: MCF7
[16] = tested on: HCC 2998
[17] = tested on: OVCAR-4
[18] = tested on: MDA-MB-435
[19] = tested on: HCT-15
[20] = tested on: A498
[21] = tested on: NCI-H23
[22] = tested on: HCT-116
[23] = tested on: DU-145
[24] = tested on: ACHN
[25] = tested on: SW-620
[26] = tested on: NCI-H226
[27] = tested on: T47D
[28] = tested on: KM12
[29] = tested on: MDA-N
[30] = tested on: SK-MEL-28
[31] = tested on: Hs-578T
[32] = tested on: A549
[33] = tested on: MDA-MB-231
[34] = tested on: PC-3
[35] = tested on: SK-OV-3
[36] = tested on: NCI-H522
[37] = tested on: Malme-3M
[38] = tested on: OVCAR-8
[39] = tested on: 786-0
[40] = tested on: RPMI-8226
[41] = tested on: OVCAR-3
[42] = tested on: UACC-62
[43] = tested on: M14
[44] = tested on: COLO 205
[45] = tested on: SN12C
[46] = tested on: SR
[47] = tested on: SK-MEL-2
[48] = tested on: IGROV-1
[49] = tested on: NCI/ADR-RES
[50] = tested on: SF-295
[51] = tested on: HOP-62
[52] = tested on: SF-539
[53] = tested on: SK-MEL-5
[54] = tested on: CAKI-1
[55] = tested on: UO-31
[56] = tested on: K562
[57] = tested on: RXF 393
[58] = tested on: HOP-92
[59] = tested on: CCRF-CEM

## CC[C@H](C)C(=O)O[C@H]1CCC=C2C=C[C@H](C)[C@H](CC[C@@H]3C[C@@H](O)CC(=O)O3)[C@H]21 [MEVASTATIN]
[1]
  GI50: 46.6 µM (inactive)
[2]
  GI50: 3.62 µM (inactive)
[3]
  GI50: > 38.9 µM (inactive)
[4]
  GI50: 1.97 µM (inactive)
[5]
  GI50: 2.07 µM (inactive)
[6]
  GI50: 36.6 µM (inactive)
[7]
  GI50: 36.7 µM (inactive)
[8]
  GI50: 50.4 µM (inactive)
[9]
  GI50: 7.31 µM (inactive)
[10]
  GI50: > 47.8 µM (inactive)
[11]
  GI50: 28 µM (inactive)
[12]
  GI50: 16.4 µM (inactive)
[13]
  GI50: 31.6 µM (inactive)
[14]
  GI50: 4.75 µM (inactive)
[15]
  GI50: 20.3 µM (inactive)
[16]
  GI50: 25.6 µM (inactive)
[17]
  GI50: 43.1 µM (inactive)
[18]
  GI50: 24.1 µM (inactive)
[19]
  GI50: 4.06 µM
[20]
  GI50: 5.43 µM (inactive)
[21]
  GI50: 20.1 µM (inactive)
[22]
  GI50: 17.1 µM (inactive)
[23]
  GI50: > 92.3 µM (inactive)
[24]
  GI50: 3.88 µM (inactive)
[25]
  GI50: 24.7 µM (inactive)
[26]
  GI50: 25.4 µM (inactive)
[27]
  GI50: > 82.8 µM (inactive)
[28]
  GI50: 37 µM (inactive)
[29]
  GI50: > 100 µM (inactive)
[30]
  GI50: 60.7 µM (inactive)
[31]
  GI50: 3.42 µM (inactive)
[32]
  GI50: 27.4 µM (inactive)
[33]
  GI50: 3.85 µM (inactive)
[34]
  GI50: 2.26 µM (inactive)
[35]
  GI50: 44.3 µM (inactive)
[36]
  GI50: 2.85 µM (inactive)
[37]
  GI50: 34.1 µM (inactive)
[38]
  GI50: 8.26 µM (inactive)
[39]
  GI50: 13.3 µM (inactive)
[40]
  GI50: 20 µM (inactive)
[41]
  GI50: 30.4 µM (inactive)
[42]
  GI50: 5.68 µM (inactive)
[43]
  GI50: 10 µM (inactive)
[44]
  GI50: 12.9 µM (inactive)
[45]
  GI50: > 78.9 µM (inactive)
[46]
  GI50: 8.73 µM (inactive)
[47]
  GI50: 5.77 µM (inactive)
[48]
  GI50: 4.43 µM (inactive)
[49]
  GI50: 10.3 µM (inactive)
[50]
  GI50: 3.27 µM (inactive)
[51]
  GI50: > 100 µM (inactive)
[52]
  GI50: 7.35 µM (inactive)
[53]
  GI50: 20.6 µM (inactive)
[54]
  GI50: 3.37 µM (inactive)
[55]
  GI50: 9.06 µM (inactive)
[56]
  GI50: 30.1 µM (inactive)
[57]
  GI50: 14.3 µM (inactive)

## COc1ccc(OC)c(Cc2cnc3nc(N)nc(N)c3c2C)c1 [PIRITREXIM ISETHIONATE]
[1]
  GI50: < 0.01 µM (active)
[3]
  GI50: 19.5 µM (inactive)
[4]
  GI50: < 0.0142 µM (active)
[5]
  GI50: 2.1 µM (inactive)
[6]
  GI50: 13.5 µM (inactive)
[7]
  GI50: < 0.0168 µM (active)
[8]
  GI50: 13.9 µM (inactive)
[9]
  GI50: 0.0957 µM (active)
[10]
  GI50: < 0.0171 µM (active)
[11]
  GI50: < 0.01 µM (active)
[12]
  GI50: 0.236 µM (active)
[58]
  GI50: 0.752 µM (active)
[13]
  GI50: 16.1 µM (inactive)
[14]
  GI50: 13.4 µM (inactive)
[15]
  GI50: 0.634 µM (active)
[16]
  GI50: 0.258 µM (active)
[17]
  GI50: 13.2 µM (inactive)
[59]
  GI50: < 0.0198 µM (active)
[18]
  GI50: < 0.0435 µM (active)
[19]
  GI50: 0.0149 µM
[21]
  GI50: 0.0617 µM (active)
[22]
  GI50: < 0.0112 µM (active)
[23]
  GI50: 0.284 µM (active)
[24]
  GI50: < 0.01 µM (active)
[25]
  GI50: < 0.0231 µM (active)
[26]
  GI50: 2.19 µM (inactive)
[27]
  GI50: 11.1 µM (inactive)
[28]
  GI50: 0.243 µM (active)
[29]
  GI50: < 0.018 µM (active)
[30]
  GI50: 1.25 µM (inactive)
[31]
  GI50: 15.1 µM (inactive)
[32]
  GI50: < 0.01 µM (active)
[33]
  GI50: 15.3 µM (inactive)
[34]
  GI50: 0.0353 µM (active)
[35]
  GI50: 11.3 µM (inactive)
[36]
  GI50: 0.204 µM (active)
[38]
  GI50: < 0.0234 µM (active)
[39]
  GI50: < 0.0497 µM (active)
[40]
  GI50: 0.173 µM (active)
[41]
  GI50: 0.533 µM (active)
[42]
  GI50: 0.853 µM (active)
[43]
  GI50: < 0.0201 µM (active)
[44]
  GI50: 12.9 µM (inactive)
[45]
  GI50: 0.352 µM (active)
[46]
  GI50: 0.03 µM (active)
[47]
  GI50: 0.986 µM (active)
[48]
  GI50: < 0.0111 µM (active)
[49]
  GI50: 0.989 µM (active)
[50]
  GI50: 0.0592 µM (active)
[51]
  GI50: 0.188 µM (active)
[52]
  GI50: 0.291 µM (active)
[53]
  GI50: 0.0955 µM (active)
[54]
  GI50: 0.0456 µM (active)
[55]
  GI50: 0.24 µM (active)
[56]
  GI50: < 0.01 µM (active)
[57]
  GI50: 2.06 µM (inactive)
